In PMC8772772, “Enantioselective Synthesis and Pharmacological Evaluation of Aza-CGP37157–Lipoic Acid Hybrids for the Treatment of Alzheimer’s Disease” (Antioxidants, 2022):

Legend:
[1] = Cytotoxicity in SH-SY5Y cell line (MTT); assay type: cell-based; conditions: human; SH-SY5Y, 10, 30 and 100 μM, 24 h, MTT; read-out: CC50
Method: SH-SY5Y human neuroblastoma cells were seeded in 96-well clear multi-well plates (6 × 10^4 cells/well). Cells were treated with increasing concentrations of compounds (10, 30 and 100 μM) for 24 h. Thereafter, viability was assessed by the MTT method. Cytotoxic concentration to observe 50% mortality (CC50) values for compounds were interpolated from dose–response curves represented as percentage of cell death vs. concentration of compound, fitted by non-linear regression and data interpolated to value 50.
(§1) The tetrazolium ring of MTT can be cleaved by active dehydrogenases to produce a formazan precipitate. At the end of the experiments, MTT (SigmaAldrich, M2003) stock solution was added to each well to achieve a final concentration of 0.5 mg/mL. Cells were incubated for 2 h. Thereafter, culture media was removed, and DMSO was added to each well to dissolve the formazan precipitate. Finally, absorbance was measured in a microplate reader (SPECTROstar nano, BMG Labtech) at 570 nm. Absorbance obtained in basal conditions was considered as 100% cell viability.
In order to evaluate the potential pharmacological profile of new compounds, we first tested the potential neurotoxicity in the neuroblastoma SHSY5Y cell line. Toxicity was evaluated at increasing concentrations (10, 30 and 100 μM), and toxicity was measured as MTT reduction capability. CC50 values were calculated by non-linear regression of curves % survival vs. concentration (Supplementary Materials Figure S2). CGP37157 and previously studied racemic derivatives rac-3a and (rac,R)-3b were included as reference compounds. As previously described, LA is a non-neurotoxic compound at the concentrations texted.

[2] = tested on: SH-SY5Y neuroblastoma cells; assay: Neuroprotection against rotenone/oligomycin A oxidative stress in SH-SY5Y cells (MTT); assay type: cell-based, human; conditions: compound 1 μM 24 h, then compound + R/O (30/10 μM) 24 h; for % Survival: basal = 100, R/O alone 53.4
Method: Human neuroblastoma SH-SY5Y cells were plated in 96-well clear multi-well plates (6 × 10^4 cells/well). The potential neuroprotective activity of compounds against OS was evaluated using the rotenone (30 μM) (SigmaAldrich, R8875) and oligomycin A (10 μM) (SigmaAldrich, 75351) (R/O) toxic mixture. Neuroprotection activity against Tau hyperphosphorylation was evaluated by using the okadaic acid (20 nM) model. Cells were pre-incubated with each compound (1 µM) for 24 h, and then treatments were removed and cells were incubated with compounds (1 µM) in the presence the corresponding toxic for additional 24 h. At the end of the experiments, viability was determined by the MTT method. Data were normalized from cell death induced by the toxic stimuli (considered as 100% cell death). Then, the protection percentages were calculated by subtracting from the death induced by toxic stimuli, the death in the presence of the compound.
as §1
Thus, we selected a pre-incubation protocol to evaluate their potential neuroprotective capacity based on the NRF2-induction activity and direct antioxidant effect. Compound pre-incubation would induce the expression of antioxidant enzymes regulated by the phase II antioxidant response, thus promoting cells’ survival. The co-incubation period would also evaluate their capacity to trap free radicals produced by intoxicated mitochondria. SH-SY5Y neuroblastoma cells were treated with compounds (1 µM) during 24 h, and then cells were co-incubated with the corresponding compound at the same concentration and the R/O combination (30/10 µM) for additional 24 h. Melatonin, a well-known antioxidant natural neurohormone, was included as a positive control (1 µM). Previously reported racemic derivatives (rac-3a and (rac,R)-3b) and their precursors ((±)-6, R-6 and S-6) were included for comparative purposes at the same concentration.

BV2 microglial cells = assay: Nitrite production reduction in LPS-stimulated BV2 microglial cells (Griess); assay type: cell-based, mouse; conditions: BV2 + LPS, 0.3–30 µM
Method: BV2 microglial cells were seeded at 2 × 10^4 cells/well and treated with compounds at increasing concentrations during 24 h in complete culture media. Then, treatments were removed, and BV2 cells were co-incubated with compounds and LPS (100 ng/mL) (O127:B8, SigmaAldrich, L3129) for additional 18 h in culture media supplemented with 1% FBS. Each plate included non-treated cells as basal nitrite production. Thereafter, nitrite production was determined by using the modified Griess assay. In brief, samples (150 μL) were mixed with DAPSONE (75 μL) (SigmaAldrich, A74807) and NEDA (75 μL) (SigmaAldrich, 33461), and the mixture was incubated at room temperature for 5 min. Light absorption was measured at 550 nm in a microplate reader (SPECTROstar nano, BMG Labtech). Basal nitrite production was referred to as 100% of nitrite production, and all data were normalized to the basal condition. Concentration needed to reduce nitrite production to 50% was calculated from graphical representation of percentage of nitrite production vs. compound concentration, and data were fitted by non-linear regression and interpolated to 50%.
Chronic neuroinflammation is considered a key pathological event in the early stages of AD development. Among immune cells present at CNS, microglia is related to host defense and tissue repair. Nonetheless, chronic neuroinflammation induced by an adverse environment of protein aggregates and exacerbated OS induces a neurotoxic activity of microglia that, finally, leads to neuronal death. […] To this end, we selected the BV2 microglial cell model stimulated by lipopolysaccharide (LPS), a TLR4 agonist that activates the pro-inflammatory response. CGP37157, R- and S-LA; analogue compounds rac-3a and (rac,R)-3b; and precursor derivatives 6 were included with comparative and reference purposes. Microglial BV2 cells were treated with increasing concentrations of the corresponding compound (0.3, 3, 10 and 30 µM) for 24 h following a pre-incubation protocol. Thereafter, treatments were exchanged by a combination of the corresponding compound at desired concentration and LPS (100 ng/mL) during 18 h. At the end of this period, nitrite production was evaluated by the Griess method as an indirect measurement of iNOS enzyme expression and BV2 activation.

SMILES | CC50 at 24 h [1] | % Protection [2] | % Survival [2] | anti-inflammatory activity (nitrite production) at the evaluated concentrations (BV2 microglial cells)
O=C1CN(CCOC(=O)CCCC[C@@H]2CCSS2)[C@@H](c2ccccc2Cl)c2cc(Cl)ccc2N1 [(R,R)-7d, 2-((R)-7-Chloro-5-(2-chlorophenyl)-2-oxo-1,2,3,5-tetrahydro-4H-benzo[e][1,4]diazepin-4-yl)ethyl 5-((R)-1,2-dithiolan-3-yl)pentanoate] | > 100 µM | 50.7% | 77.6 ± 4.4% | no significant activity
O=C1CN(CCOC(=O)CCCC[C@@H]2CCSS2)[C@H](c2ccccc2Cl)c2cc(Cl)ccc2N1 [(R,S)-7c, 2-((S)-7-Chloro-5-(2-chlorophenyl)-2-oxo-1,2,3,5-tetrahydro-4H-benzo[e][1,4]diazepin-4-yl)ethyl 5-((R)-1,2-dithiolan-3-yl)pentanoate] | > 100 µM | 47.2% | 76.1 ± 2.9% | no significant activity
O=C1CN(CCOC(=O)CCCC[C@H]2CCSS2)[C@H](c2ccccc2Cl)c2cc(Cl)ccc2N1 [(S,S)-7a, 2-((S)-7-Chloro-5-(2-chlorophenyl)-2-oxo-1,2,3,5-tetrahydro-4H-benzo[e][1,4]diazepin-4-yl)ethyl 5-((S)-1,2-dithiolan-3-yl)pentanoate] | > 100 µM | 43.4% | 74.8 ± 3.2% | no significant activity
O=C1CN(CCOC(=O)CCCC[C@H]2CCSS2)[C@@H](c2ccccc2Cl)c2cc(Cl)ccc2N1 [(S,R)-7b, 2-((R)-7-Chloro-5-(2-chlorophenyl)-2-oxo-1,2,3,5-tetrahydro-4H-benzo[e][1,4]diazepin-4-yl)ethyl 5-((S)-1,2-dithiolan-3-yl)pentanoate] | > 100 µM | 61.1% | 81.0 ± 4.7% | –
